We go through 28 compounds from patent US10590140B2, “Tetrahydropyrimidodiazepine and dihydropyridodiazepine compounds for treating pain and pain related conditions” (ESTEVE PHARMACEUTICALS, S.A., priority 2016, dated 2020).

Chain of human α2δ-1 subunit of Cav2.2 calcium channel (P54289 25-1103): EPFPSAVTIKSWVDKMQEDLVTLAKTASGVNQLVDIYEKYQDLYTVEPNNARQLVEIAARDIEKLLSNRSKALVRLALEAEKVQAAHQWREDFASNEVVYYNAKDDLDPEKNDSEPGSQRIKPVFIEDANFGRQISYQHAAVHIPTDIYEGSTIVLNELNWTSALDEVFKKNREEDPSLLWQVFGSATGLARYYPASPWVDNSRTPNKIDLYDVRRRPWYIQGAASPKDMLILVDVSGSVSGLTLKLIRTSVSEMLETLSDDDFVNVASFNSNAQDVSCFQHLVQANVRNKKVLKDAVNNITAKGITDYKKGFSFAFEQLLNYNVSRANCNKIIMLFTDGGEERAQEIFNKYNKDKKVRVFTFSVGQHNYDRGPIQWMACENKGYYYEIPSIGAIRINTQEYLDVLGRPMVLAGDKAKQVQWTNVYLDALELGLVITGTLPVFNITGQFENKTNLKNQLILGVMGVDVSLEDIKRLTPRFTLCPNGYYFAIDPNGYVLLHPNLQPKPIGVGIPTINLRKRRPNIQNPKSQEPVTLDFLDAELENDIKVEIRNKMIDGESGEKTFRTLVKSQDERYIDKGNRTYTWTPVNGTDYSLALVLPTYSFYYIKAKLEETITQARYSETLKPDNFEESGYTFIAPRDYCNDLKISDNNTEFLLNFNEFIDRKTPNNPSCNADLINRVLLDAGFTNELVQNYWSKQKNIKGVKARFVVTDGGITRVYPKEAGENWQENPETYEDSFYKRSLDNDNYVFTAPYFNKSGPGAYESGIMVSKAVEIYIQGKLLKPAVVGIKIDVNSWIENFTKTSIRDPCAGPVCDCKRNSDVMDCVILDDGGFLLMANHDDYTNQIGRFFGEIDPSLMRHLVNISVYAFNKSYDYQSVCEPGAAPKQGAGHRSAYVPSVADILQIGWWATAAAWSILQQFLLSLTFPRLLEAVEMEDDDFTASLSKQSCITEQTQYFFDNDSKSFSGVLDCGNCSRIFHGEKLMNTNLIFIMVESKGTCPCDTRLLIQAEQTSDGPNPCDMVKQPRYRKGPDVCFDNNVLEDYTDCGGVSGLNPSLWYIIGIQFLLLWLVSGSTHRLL

In the first assay the target is human α2δ-1 subunit of Cav2.2 calcium channel (Homo sapiens (Human), UniProt P54289). The assay can be described thus: Binding assay to human α2δ-1 subunit of Cav2.2 calcium channel ([3H]-Gabapentin). Conditions: Table 2, dual compounds; [3H]-Gabapentin binding; read-out: Ki (nM) α2δ-1. In short, it runs like this:
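Radioactivity on dried GF/C filters quantified by scintillation after filtration and three cold Tris-HCl (pH 7.4) washes. Incubation ran 60 min at 27° C with [3H]-gabapentin; 10 μM pregabalin gave nonspecific binding.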
Turning to `CCNc1ncc2c(n1)N(C)CCN(c1cccc(COC(CCNC)c3cccs3)c1)C2=O` (stereo not shown) [Example 211, 2-(ethylamino)-9-methyl-6-(3-((3-(methylamino)-1-(thiophen-2-yl)propoxy)methyl)phenyl)-6,7,8,9-tetrahydro-5H-pyrimido[4,5-e][1,4]diazepin-5-one], the Ki (commonly the equilibrium dissociation constant of an inhibitor or competing ligand from its target) lay in the range of 100 to 500 nM.

In the case of `CCNc1ncc2c(n1)N(C)CCN(c1cccc(CO[C@H](CCNC)c3cccs3)c1)C2=O` [Example 212, (R)-2-(ethylamino)-9-methyl-6-(3-((3-(methylamino)-1-(thiophen-2-yl)propoxy)methyl)phenyl)-6,7,8,9-tetrahydro-5H-pyrimido[4,5-e][1,4]diazepin-5-one], the Ki was 100 to 500 nM.

Take `CNCCC(OCc1cccc(N2CCN(C)c3nc(OC)ncc3C2=O)c1)c1cccs1` (stereo not shown) [Example 221, 2-methoxy-9-methyl-6-(3-((3-(methylamino)-1-(thiophen-2-yl)propoxy)methyl)phenyl)-6,7,8,9-tetrahydro-5H-pyrimido[4,5-e][1,4]diazepin-5-one]: the Ki is 100 to 500 nM.

The assay is the same for the next values; noted with them: binding to α2δ-1, [3H]-Gabapentin; read-out: Ki (nM) α2δ-1.
As to `CCNc1ncc2c(n1)N(C)CCN(c1cccc(-n3cc(CN)nn3)c1)C2=O` [Example 181, 6-(3-(4-(aminomethyl)-1H-1,2,3-triazol-1-yl)phenyl)-2-(ethylamino)-9-methyl-6,7,8,9-tetrahydro-5H-pyrimido[4,5-e][1,4]diazepin-5-one], the Ki was 100 to 500 nM.

For `CCNc1ncc2c(n1)N(C)CCN(c1cccc(Cn3cc(CNC)nn3)c1)C2=O` [Example 184, 2-(ethylamino)-9-methyl-6-(3-((4-((methylamino)methyl)-1H-1,2,3-triazol-1-yl)methyl)phenyl)-6,7,8,9-tetrahydro-5H-pyrimido[4,5-e][1,4]diazepin-5-one], the Ki lay in the range of 500 to 3000 nM.

As to `CCNc1ncc2c(n1)N(C)CCN(c1cccc(-n3cc(CNC)cn3)c1)C2=O` [Example 185, 2-(ethylamino)-9-methyl-6-(3-(4-((methylamino)methyl)-1H-pyrazol-1-yl)phenyl)-6,7,8,9-tetrahydro-5H-pyrimido[4,5-e][1,4]diazepin-5-one], the Ki is 100 to 500 nM.

Regarding `CCNc1ncc2c(n1)N(C)CCN(c1cccc(-n3cnc(CNC)c3)c1)C2=O` [Example 186, 2-(ethylamino)-9-methyl-6-(3-(4-((methylamino)methyl)-1H-imidazol-1-yl)phenyl)-6,7,8,9-tetrahydro-5H-pyrimido[4,5-e][1,4]diazepin-5-one], the Ki lay within 100 to 500 nM.

For the compound `CCNc1ncc2c(n1)N(C)CCN(c1cccc(-c3nnc(CNC)o3)c1)C2=O` [Example 187, 2-(ethylamino)-9-methyl-6-(3-(5-((methylamino)methyl)-1,3,4-oxadiazol-2-yl)phenyl)-6,7,8,9-tetrahydro-5H-pyrimido[4,5-e][1,4]diazepin-5-one], the Ki is over 3000 nM.

Turning to `CCNc1ncc2c(n1)N(C)CCN(c1ccccc1OC(CCNC)c1ccccc1)C2=O` (stereo not shown) [Example 188, 2-(ethylamino)-9-methyl-6-(2-(3-(methylamino)-1-phenylpropoxy)phenyl)-6,7,8,9-tetrahydro-5H-pyrimido[4,5-e][1,4]diazepin-5-one], the Ki was over 3000 nM.

Regarding `CCNc1ncc2c(n1)N(C)CCN(c1cccc(COC(CCNC)C(C)C)c1)C2=O` (stereo not shown) [Example 189, 2-(ethylamino)-9-methyl-6-(3-(((4-methyl-1-(methylamino)pentan-3-yl)oxy)methyl)phenyl)-6,7,8,9-tetrahydro-5H-pyrimido[4,5-e][1,4]diazepin-5-one], the Ki is 500 to 3000 nM.

In the case of `CNCCC(OCc1cccc(N2CCN(C)c3nc(SC)ncc3C2=O)c1)C(C)C` (stereo not shown) [Example 190, 9-methyl-6-(3-(((4-methyl-1-(methylamino)pentan-3-yl)oxy)methyl)phenyl)-2-(methylthio)-6,7,8,9-tetrahydro-5H-pyrimido[4,5-e][1,4]diazepin-5-one], the Ki was over 3000 nM.

As for `CCNc1ncc2c(n1)N(C)CCN(c1cccc(COC(C)CCNC)c1)C2=O` (stereo not shown) [Example 191, 2-(ethylamino)-9-methyl-6-(3-(((4-(methylamino)butan-2-yl)oxy)methyl)phenyl)-6,7,8,9-tetrahydro-5H-pyrimido[4,5-e][1,4]diazepin-5-one], the Ki is 500 to 3000 nM.

As to `CNCCC(C)OCc1cccc(N2CCN(C)c3nc(SC)ncc3C2=O)c1` (stereo not shown) [Example 192, 9-methyl-6-(3-(((4-(methylamino)butan-2-yl)oxy)methyl)phenyl)-2-(methylthio)-6,7,8,9-tetrahydro-5H-pyrimido[4,5-e][1,4]diazepin-5-one], the Ki was over 3000 nM.

Take `CCNc1ncc2c(n1)N(C)CCN(Cc1cccc(OC(CNC)c3ccccc3)c1)C2=O` (stereo not shown) [Example 200, 2-(ethylamino)-9-methyl-6-(3-(2-(methylamino)-1-phenylethoxy)benzyl)-6,7,8,9-tetrahydro-5H-pyrimido[4,5-e][1,4]diazepin-5-one]: the Ki is over 3000 nM.

Regarding `CCNc1ncc2c(n1)N(C)CCN(Cc1ccc(CNC)cc1)C2=O` [Example 202, 2-(ethylamino)-9-methyl-6-(4-((methylamino)methyl)benzyl)-6,7,8,9-tetrahydro-5H-pyrimido[4,5-e][1,4]diazepin-5-one], the Ki lay in the range of 500 to 3000 nM.

As to `CCNc1ncc2c(n1)N(C)CCN(c1cccc(COC(CCNC)c3cccs3)c1)C2=O` (stereo not shown) [Example 211, 2-(ethylamino)-9-methyl-6-(3-((3-(methylamino)-1-(thiophen-2-yl)propoxy)methyl)phenyl)-6,7,8,9-tetrahydro-5H-pyrimido[4,5-e][1,4]diazepin-5-one], the Ki lay in the range of 100 to 500 nM.

For `CCNc1ncc2c(n1)N(C)CCN(c1cccc(CO[C@H](CCNC)c3cccs3)c1)C2=O` [Example 212, (R)-2-(ethylamino)-9-methyl-6-(3-((3-(methylamino)-1-(thiophen-2-yl)propoxy)methyl)phenyl)-6,7,8,9-tetrahydro-5H-pyrimido[4,5-e][1,4]diazepin-5-one], the Ki is 100 to 500 nM.

Consider `CCNc1ncc2c(n1)N(C)CCN(c1cccc(OC(CCNCCF)c3cccs3)c1)C2=O` (stereo not shown) [Example 220, 2-(ethylamino)-6-(3-(3-((2-fluoroethyl)amino)-1-(thiophen-2-yl)propoxy)phenyl)-9-methyl-6,7,8,9-tetrahydro-5H-pyrimido[4,5-e][1,4]diazepin-5-one], for which the Ki fell in the range of 500 to 3000 nM.

Regarding `CNCCC(OCc1cccc(N2CCN(C)c3nc(OC)ncc3C2=O)c1)c1cccs1` (stereo not shown) [Example 221, 2-methoxy-9-methyl-6-(3-((3-(methylamino)-1-(thiophen-2-yl)propoxy)methyl)phenyl)-6,7,8,9-tetrahydro-5H-pyrimido[4,5-e][1,4]diazepin-5-one], the Ki fell in the range of 500 to 3000 nM.

For `CCNc1cc2c(cn1)C(=O)N(c1cccc(COC(CCNC)c3cccs3)c1)CCN2C` (stereo not shown) [Example 228, 8-(ethylamino)-1-methyl-4-(3-((3-(methylamino)-1-(thiophen-2-yl)propoxy)methyl)phenyl)-1,2,3,4-tetrahydro-5H-pyrido[4,3-e][1,4]diazepin-5-one], the Ki fell in the range of 100 to 500 nM.

Consider `CCNc1ncc2c(n1)N(C)CCN(c1cccc(C3=CCN(C(=O)OC(C)(C)C)CC3)c1)C2=O` [Example 233, tert-Butyl 4-(3-(2-(ethylamino)-9-methyl-5-oxo-5,7,8,9-tetrahydro-6H-pyrimido[4,5-e][1,4]diazepin-6-yl)phenyl)-3,6-dihydropyridine-1(2H)-carboxylate], for which the Ki was over 3000 nM.

Consider `CCNc1ncc2c(n1)N(C)CCN(c1cccc(C3CCN(C(=O)OC(C)(C)C)CC3)c1)C2=O` [Example 234, tert-Butyl 4-(3-(2-(ethylamino)-9-methyl-5-oxo-5,7,8,9-tetrahydro-6H-pyrimido[4,5-e][1,4]diazepin-6-yl)phenyl)piperidine-1-carboxylate], for which the Ki is over 3000 nM.

For the compound `CCNc1ncc2c(n1)N(C)CCN(c1cccc(C3CCNCC3)c1)C2=O` [Example 235, 2-(Ethylamino)-9-methyl-6-(3-(piperidin-4-yl)phenyl)-6,7,8,9-tetrahydro-5H-pyrimido[4,5-e][1,4]diazepin-5-one], the Ki was 100 to 500 nM.

On to `CCNc1ncc2c(n1)N(C)CCN(c1cccc(-n3cc(CN(CC4CC4)CC4CC4)nn3)c1)C2=O` [Example 245, 6-(3-(4-((bis (cyclopropylmethyl)amino)methyl)-1H-1,2,3-triazol-1-yl)phenyl)-2-(ethylamino)-9-methyl-6,7,8,9-tetrahydro-5H-pyrimido[4,5-e][1,4]diazepin-5-one], for which the Ki fell in the range of 500 to 3000 nM.

For `CCNc1ncc2c(n1)N(C)CCN(c1cccc(-n3cc(CCN(C)Cc4ccccc4)nn3)c1)C2=O` [Example 247, 6-(3-(4-(2-(benzyl(methyl)amino)ethyl)-1H-1,2,3-triazol-1-yl)phenyl)-2-(ethylamino)-9-methyl-6,7,8,9-tetrahydro-5H-pyrimido[4,5-e][1,4]diazepin-5-one], the Ki was 500 to 3000 nM.

With `CCNc1ncc2c(n1)N(C)CCN(c1cccc(-n3cc(CCN(C)C)nn3)c1)C2=O` [Example 248, 6-(3-(4-(2-(dimethylamino)ethyl)-1H-1,2,3-triazol-1-yl)phenyl)-2-(ethylamino)-9-methyl-6,7,8,9-tetrahydro-5H-pyrimido[4,5-e][1,4]diazepin-5-one], the Ki lay within 100 to 500 nM.

For `CCNc1ncc2c(n1)N(C)CCN(c1cccc(-n3cc(CCN(C)CCc4ccccc4)nn3)c1)C2=O` [Example 249, 2-(ethylamino)-9-methyl-6-(3-(4-(2-(methyl(phenethyl)amino)ethyl)-1H-1,2,3-triazol-1-yl)phenyl)-6,7,8,9-tetrahydro-5H-pyrimido[4,5-e][1,4]diazepin-5-one], the Ki lay in the range of 100 to 500 nM.

For the compound `CCNc1ncc2c(n1)N(C)CCN(c1cccc(Cn3cc(CN(C)Cc4ccccc4)nn3)c1)C2=O` [Example 250, 6-(3-((4-((benzyl (methyl)amino)methyl)-1H-1,2,3-triazol-1-yl)methyl)phenyl)-2-(ethylamino)-9-methyl-6,7,8,9-tetrahydro-5H-pyrimido[4,5-e][1,4]diazepin-5-one], the Ki is 500 to 3000 nM.

As to `CCNc1ncc2c(n1)N(C)CCN(c1cccc(-c3nnc(CN(C)Cc4ccccc4)o3)c1)C2=O` [Example 255, 6-(3-(5-((benzyl(methyl)amino)methyl)-1,3,4-oxadiazol-2-yl)phenyl)-2-(ethylamino)-9-methyl-6,7,8,9-tetrahydro-5H-pyrimido[4,5-e][1,4]diazepin-5-one], the inhibition constant (Ki) was 100 to 500 nM.

Take `CCNc1ncc2c(n1)N(C)CCN(c1cccc(OCCCN(C)C)c1)C2=O` [Example 257, 6-(3-(3-(dimethylamino)propoxy)phenyl)-2-(ethylamino)-9-methyl-6,7,8,9-tetrahydro-5H-pyrimido[4,5-e][1,4]diazepin-5-one]: the Ki lay within 100 to 500 nM.

Consider `CCNc1ncc2c(n1)N(C)CCN(c1cccc(OCCCN(C)CCc3ccccc3)c1)C2=O` [Example 258, 2-(ethylamino)-9-methyl-6-(3-(3-(methyl(phenethyl)amino)propoxy)phenyl)-6,7,8,9-tetrahydro-5H-pyrimido[4,5-e][1,4]diazepin-5-one], for which the Ki is 500 to 3000 nM.
